According to PMC12409883 (Journal of Medicinal Chemistry, 2025):

Columns and labels:
[1] = tested on: visual chromophore regeneration in BALB/cJ mice; test: Extent and duration of effects on visual chromophore recovery after photobleach; details: 10 mg/kg single IP, photobleach 30 min after dose, 2 h dark recovery
BALB/cJ mice [2] = test: Light-induced retinal damage in BALB/cJ mice: histology, ONL nuclei counts; details: 10 mg/kg single IP, 15,000 lx for 8 h, p < 0.0001
RPE65 = RPE65 (Bos taurus, UniProt Q28175); test: In vitro RPE65 activity assay; details: for IC50: IC50 toward RPE65, bovine RPE microsomes
Sequence of RPE65 (Q28175 whole entry): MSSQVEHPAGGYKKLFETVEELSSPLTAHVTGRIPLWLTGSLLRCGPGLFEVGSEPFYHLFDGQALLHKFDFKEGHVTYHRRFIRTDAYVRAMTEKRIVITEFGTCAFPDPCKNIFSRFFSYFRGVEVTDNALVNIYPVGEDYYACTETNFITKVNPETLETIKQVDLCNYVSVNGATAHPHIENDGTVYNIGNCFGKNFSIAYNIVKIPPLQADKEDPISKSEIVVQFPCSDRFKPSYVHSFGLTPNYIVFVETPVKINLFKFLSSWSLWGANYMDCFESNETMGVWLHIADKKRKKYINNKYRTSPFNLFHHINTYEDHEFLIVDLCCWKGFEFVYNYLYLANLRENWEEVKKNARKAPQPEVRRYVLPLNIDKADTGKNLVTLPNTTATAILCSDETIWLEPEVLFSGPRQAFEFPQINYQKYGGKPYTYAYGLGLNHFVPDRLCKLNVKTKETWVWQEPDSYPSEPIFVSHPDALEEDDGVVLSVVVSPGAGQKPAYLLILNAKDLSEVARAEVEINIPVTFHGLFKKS

BALB/cJ mice [3] = test: Light-induced retinal damage in BALB/cJ mice: SLO and OCT imaging; format: in vivo, mouse
BALBc/J mice = test: In vivo scotopic ERG 2 h after photobleach, oral gavage dosing; design: species or system mouse; details: 10 mg/kg oral gavage, photobleach after 30 min, 2 h in the dark
porcine liver esterase = test: In vitro esterase susceptibility assay; details: for initial rate of VCM loss: 37 °C, followed for 60 min
Abca4–/–Rdh8–/– mice [4] = test: Photic retinal damage in Abca4–/–Rdh8–/– mice; format: in vivo, mouse
Abca4–/–Rdh8–/– mice [5] = test: Photic retinal damage in Abca4–/–Rdh8–/– mice: photopic ERG; format: in vivo, mouse; details: IP and oral administration, 1 week after light damage
Abca4–/–Rdh8–/– mice [6] = test: Photic retinal damage in Abca4–/–Rdh8–/– mice: scotopic; format: in vivo, mouse; details: 1 week after light damage
[7] = Shelf life of ester-based VCMs; format: physicochemical; details: Figure S1
[8] = 10 mg/kg single IP, 15,000 lx for 8 h, assessed after 7 days

IC50 (RPE65)	slower initial rate of hydrolysis compared with compound 5 (porcine liver esterase)	initial rate of VCM loss (porcine liver esterase)	RPE65 inhibition in vitro (RPE65; bovine RPE microsomes)	SMILES	ocular retinoid pattern (atREs and 11cRAL) after photobleach [1]	Spider plot of ONL thickness from H&E sections, ANOVA (BALB/cJ mice [2])	OCT: ONL thickness (BALB/cJ mice [3]; [8])	SLO retinal autofluorescent puncta (BALB/cJ mice [3]; [8])	efficacy of a single systemic administration in the prevention of photic retinal damage (BALB/cJ mice [3]; 10 mg/kg single IP, albino BALB/cJ mice)	scotopic ERG a-wave after oral dosing (BALBc/J mice)	scotopic ERG b-wave after oral dosing (BALBc/J mice)	OCT: ONL, oral (Abca4–/–Rdh8–/– mice [4]; oral 10, 20, 50 mg/kg, 10,000 lx for 30 min, assessed after 1 week)	SLO autofluorescent signals, oral (Abca4–/–Rdh8–/– mice [4]; oral 10, 20 and 50 mg/kg, 10,000 lx for 30 min, assessed after 1 week)	oral dose from which the effect on ONL thickness was significant (Abca4–/–Rdh8–/– mice [4]; oral administration, OCT ONL thickness)	OCT: ONL, IP (Abca4–/–Rdh8–/– mice [4]; single IP dose, 10,000 lx for 30 min, assessed after 1 week)	S-cone and M-cone b-wave amplitudes (Abca4–/–Rdh8–/– mice [5])	rod ERG responses, IP (Abca4–/–Rdh8–/– mice [6]; IP administration)	rod ERG b-wave amplitudes, oral (Abca4–/–Rdh8–/– mice [6]; oral 10, 20, 50 mg/kg)	stability to nonenzymatic aminolysis [7]
0.069 ± 0.015 µM	~4 fold	1.512 % compound/min		CCC(CC)C(=O)Oc1cccc(C(O)CCN)c1.O=CO (stereo not shown) [Compound 6, 3-(3-Amino-1-hydroxypropyl)phenyl 2-ethylbutanoate formate]	reproduced the retinoid pattern observed after emixustat treatment	significant effect	preserved the thickness of the ONL	rare autofluorescent puncta	equal to that of emixustat	suppressed significantly the scotopic ERG a-wave	only 7 suppressed also the b-wave amplitude								
			did not significantly inhibit RPE65	NCCC(O)c1cccc(O)c1 (stereo not shown) [Compound 4, 3-(3-Amino-1-hydroxypropyl)phenol]	led to the same pattern as vehicle treatment														
0.102 ± 0.012 µM	~13 fold	0.440 % compound/min		CCCC(CCC)C(=O)Oc1cccc(C(O)CCN)c1.O=CO (stereo not shown) [Compound 7, 3-(3-Amino-1-hydroxypropyl)phenyl 2-propylpentanoate formate]	reproduced the retinoid pattern observed after emixustat treatment					suppressed significantly the scotopic ERG a-wave		dose-dependent preservation of the ONL layer	did not afford complete protection	≥ 20 mg/kg	the ONL remained intact	A similar trend was observed	had a significant effect in maintaining rod function	dose-dependent preservation of rod ERG b-wave amplitudes	
0.164 ± 0.027 µM		5.611 % compound/min		NCCC(O)c1cccc(OC(=O)C2CCCCC2)c1.O=CO (stereo not shown) [Compound 5, 3-(3-Amino-1-hydroxypropyl)phenyl cyclohexanecarboxylate formate]	led to the same pattern as vehicle treatment														substantially less stable compared to 6 and 7
